Data published in patent publication US10350199B2, “3-(1h-pyrrolo[2,3-b]pyridin-2-yl)-1h-indazoles and therapeutic uses thereof” (Samumed, LLC, priority 2015, dated 2019).

Assays:
Type in all cases: cell-based
[1] = system: Wnt activity (Sp5-Luc reporter, SW480 colon carcinoma cells); assay: Wnt activity screening assay, Sp5-Luc reporter gene in SW480 cells; settings: Homo sapiens; for inhibition at 10 µM: SW480, read-out: percent inhibition at 10 μM; for EC50: Sp5-Luc reporter, SW480 cells, overnight incubation
Method in brief: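 SW480 cells stably transduced with lentiviral Sp5 promoter (eight TCF/LEF sites)-firefly luciferase, plated at 4,000 cells/well in 1% FBS medium and incubated overnight at 37° C. Luminescence read after BrightGlo addition, normalized to DMSO-only cells; EC50 from four-parameter variable-slope nonlinear regression.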

SW480 colon cancer cells = assay: Cell viability assay (CellTiter-Blue), SW480 cells, four days; settings: Homo sapiens; for EC50: 96 h, SW480 cell viability, four days, CellTiter-Blue; for inhibition at 10 µM: SW480, read-out: percent inhibition at 10 μM
Method in brief: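 Fluorescence from resazurin reduced to resorufin by metabolically active cells was the read-out, taken after ~3 h with CellTiter-Blue.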

[2] = system: primary human fibroblasts derived from IPF patients (LL29 cells) treated with TGF-β1; assay: Inhibition of the fibrotic process: αSMA staining in TGF-β1 treated LL29 fibroblasts; settings: Fibroblast; for EC50: 96 h, LL29 cells, TGF-β1 20 ng/mL, 4 days, % αSMA positive cells; for inhibition at 10 µM: read-out: percent inhibition at 10 μM
Method in brief: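 IPF-patient-derived LL29 lung fibroblasts in F12 with 1% FBS, stimulated with TGF-β1 alongside compound; TGF-β1 plus DMSO wells served as controls. After 4 days, nuclei stained with 1 μM SYTOX green for 30 min at room temperature, alongside αSMA staining.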

[3] = system: primary human mesenchymal stem cells (hMSCs); assay: Induction of chondrogenesis in human mesenchymal stem cells (nodule area, Rhodamine B/Nile Red); settings: hMSC chondrogenesis; for EC50: concentration required to induce 50% levels of chondrogenesis of TGF-β3 positive control, read-out: Conc (nM) of 50% TGF-β3 activity; for Emax: relative to TGF-β3 (10 ng/mL) positive control, read-out: Max. Activity as % TGF-β3 activity
From the text: Representative compounds were screened using primary human mesenchymal stem cells (hMSCs) to determine their ability to induce chondrogenesis (process by which cartilage is developed).
Primary human mesenchymal stem cells (hMSCs) were purchased from Lonza (Walkersville, Md.) and expanded in Mesenchymal Stem Cell Growth Media (Lonza). Cells between passage 3 and 6 were used for the experiments.
Area of nodules in each well was normalized to the average of 3 DMSO treated wells on the same plate using Excel (Microsoft Inc.). The normalized averages (fold change over DMSO) of 2 or 3 replicate wells for each compound concentration were calculated. Due to solubility limitations of some of the compounds, curve fitting was incomplete leading to inaccurate EC50 determinations.
Using TGF-β3 as a positive control, the concentration of representative compounds required to induce 50% levels of chondrogenesis is reported. In addition, the maximum activity of each compound and the respective dose that each compound reached maximum chondrogenesis activity is reported.

[4] = system: IL-6 (THP-1 human monocyte cell line); assay: IL-6 inhibition in LPS-stimulated THP-1 cells (HTRF); settings: for EC50: IL-6 inhibition, LPS-stimulated THP-1 cells, HTRF; for inhibition at 10 µM: THP-1, read-out: percentage in parentheses beside EC50 >10 (IL-6 inhibition)
Method in brief: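 THP-1 cells kept 24 h in 1% FBS medium, treated 2 h at 37 °C, then stimulated with 500 ng/mL LPS for another 22 h. IL-6 measured by HTRF as the 665/620 nm ratio; EC50 from a four-parameter fit normalized to DMSO controls.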

O=C(Nc1cncc(-c2ccc3[nH]nc(-c4cc5c(-c6ccncc6)ccnc5[nH]4)c3c2)c1)C1CCC1 [Compound 133, N-(5-(3-(4-(Pyridin-4-yl)-1H-pyrrolo[2,3-b]pyridin-2-yl)-1H-indazol-5-yl)pyridin-3-yl)cyclobutanecarboxamide]
inhibition at 10 µM [1]: 2.8%
EC50 [1]: > 10000 nM
EC50 (SW480 colon cancer cells): > 10000 nM
inhibition at 10 µM (SW480 colon cancer cells): 6.4%
EC50 [2]: > 10000 nM
inhibition at 10 µM [2]: 0%
EC50 [3]: 900 nM
Emax [3]: 73%
EC50 [4]: > 10000 nM
inhibition at 10 µM [4]: 33.3%

FC1(F)CCN(Cc2cncc(-c3ccc4[nH]nc(-c5cc6c(-c7cccnc7)ccnc6[nH]5)c4c3)c2)C1 [Compound 110, 5-(5-((3,3-Difluoropyrrolidin-1-yl)methyl)pyridin-3-yl)-3-(4-(pyridin-3-yl)-1H-pyrrolo[2,3-b]pyridin-2-yl)-1H-indazole]
EC50 [1]: 523 nM
EC50 (SW480 colon cancer cells): > 10000 nM
inhibition at 10 µM (SW480 colon cancer cells): 51.8%
EC50 [2]: 95 nM
Emax [3]: 20%
EC50 [4]: 3340 nM

COc1cncc(-c2ccc3[nH]nc(-c4cc5c(-c6ccoc6)ccnc5[nH]4)c3c2)c1 [Compound 692, 3-(4-(Furan-3-yl)-1H-pyrrolo[2,3-b]pyridin-2-yl)-5-(5-methoxypyridin-3-yl)-1H-indazole]
inhibition at 10 µM [1]: 20%
EC50 [1]: > 10000 nM
EC50 (SW480 colon cancer cells): > 10000 nM
inhibition at 10 µM (SW480 colon cancer cells): 0%
EC50 [2]: > 10000 nM
inhibition at 10 µM [2]: 0%
Emax [3]: 26%
EC50 [4]: > 10000 nM
inhibition at 10 µM [4]: 43.9%

CN(C)Cc1cncc(-c2ccc3[nH]nc(-c4cc5c(-c6ccncc6)ccnc5[nH]4)c3c2)c1 [Compound 125, N,N-Dimethyl-1-(5-(3-(4-(pyridin-4-yl)-1H-pyrrolo[2,3-b]pyridin-2-yl)-1H-indazol-5-yl)pyridin-3-yl)methanamine]
inhibition at 10 µM [1]: 29.7%
EC50 [1]: > 10000 nM
EC50 (SW480 colon cancer cells): > 10000 nM
inhibition at 10 µM (SW480 colon cancer cells): 7.4%
EC50 [2]: > 10000 nM
inhibition at 10 µM [2]: 0%
Emax [3]: 37%
EC50 [4]: > 10000 nM
inhibition at 10 µM [4]: 49.7%

CN1CCN(c2ccnc3[nH]c(-c4n[nH]c5ccc(-c6cncc(N)c6)cc45)cc23)CC1 [Compound 227, 5-(3-(4-(4-Methylpiperazin-1-yl)-1H-pyrrolo[2,3-b]pyridin-2-yl)-1H-indazol-5-yl)pyridin-3-amine]
EC50 [1]: 1170 nM
EC50 (SW480 colon cancer cells): > 10000 nM
inhibition at 10 µM (SW480 colon cancer cells): 42.3%
EC50 [2]: > 10000 nM
inhibition at 10 µM [2]: 51.2%
EC50 [3]: 100 nM
Emax [3]: 50%
EC50 [4]: 7340 nM

c1cncc(-c2ccc3[nH]nc(-c4cc5c(-c6ccsc6)ccnc5[nH]4)c3c2)c1 [Compound 284, 5-(Pyridin-3-yl)-3-(4-(thiophen-3-yl)-1H-pyrrolo[2,3-b]pyridin-2-yl)-1H-indazole]
inhibition at 10 µM [1]: 38%
EC50 [1]: > 10000 nM
EC50 (SW480 colon cancer cells): 352 nM
EC50 [2]: 2200 nM
Emax [3]: 39%
EC50 [4]: 347 nM

Cc1ccncc1-c1ccc2[nH]nc(-c3cc4c(-c5ccoc5)ccnc4[nH]3)c2c1 [Compound 313, 3-(4-(Furan-3-yl)-1H-pyrrolo[2,3-b]pyridin-2-yl)-5-(4-methylpyridin-3-yl)-1H-indazole]
EC50 [1]: 4280 nM
EC50 (SW480 colon cancer cells): > 10000 nM
inhibition at 10 µM (SW480 colon cancer cells): 0%
EC50 [2]: > 10000 nM
inhibition at 10 µM [2]: 36.3%
EC50 [3]: 100 nM
Emax [3]: 67%
EC50 [4]: 1010 nM

O=C(Nc1cncc(-c2ccc3[nH]nc(-c4cc5c(-c6ccncc6)ccnc5[nH]4)c3c2)c1)c1ccccc1 [Compound 123, N-(5-(3-(4-(Pyridin-4-yl)-1H-pyrrolo[2,3-b]pyridin-2-yl)-1H-indazol-5-yl)pyridin-3-yl)benzamide]
inhibition at 10 µM [1]: 17.3%
EC50 [1]: > 10000 nM
EC50 (SW480 colon cancer cells): > 10000 nM
inhibition at 10 µM (SW480 colon cancer cells): 7.2%
EC50 [2]: > 10000 nM
inhibition at 10 µM [2]: 49.2%
Emax [3]: 19%
EC50 [4]: > 10000 nM
inhibition at 10 µM [4]: 20.6%

Nc1cncc(-c2ccc3[nH]nc(-c4cc5c(-c6ccccc6F)ccnc5[nH]4)c3c2)c1 [Compound 59, 5-(3-(4-(2-Fluorophenyl)-1H-pyrrolo[2,3-b]pyridin-2-yl)-1H-indazol-5-yl) pyridin-3-amine]
EC50 [1]: 131 nM
EC50 (SW480 colon cancer cells): 399 nM
EC50 [2]: 592 nM
Emax [3]: 24%
EC50 [4]: > 10000 nM
inhibition at 10 µM [4]: 31.6%

CC(C)Nc1cncc(-c2ccc3[nH]nc(-c4cc5c(-c6cccnc6)ccnc5[nH]4)c3c2)c1 [Compound 96, N-Isopropyl-5-(3-(4-(pyridin-3-yl)-1H-pyrrolo[2,3-b]pyridin-2-yl)-1H-indazol-5-yl)pyridin-3-amine]
inhibition at 10 µM [1]: 38.9%
EC50 [1]: > 10000 nM
EC50 (SW480 colon cancer cells): > 10000 nM
inhibition at 10 µM (SW480 colon cancer cells): 28.2%
EC50 [2]: > 10000 nM
inhibition at 10 µM [2]: 10%
Emax [3]: 45%
EC50 [4]: 409 nM

Cc1ccncc1-c1ccc2[nH]nc(-c3cc4c(-c5ccncc5)ccnc4[nH]3)c2c1 [Compound 117, 5-(4-Methylpyridin-3-yl)-3-(4-(pyridin-4-yl)-1H-pyrrolo[2,3-b]pyridin-2-yl)-1H-indazole]
inhibition at 10 µM [1]: 31.8%
EC50 [1]: > 10000 nM
EC50 (SW480 colon cancer cells): > 10000 nM
inhibition at 10 µM (SW480 colon cancer cells): 4.6%
EC50 [2]: > 10000 nM
inhibition at 10 µM [2]: 44.2%
Emax [3]: 44%
EC50 [4]: > 10000 nM
inhibition at 10 µM [4]: 31.5%

CN(C)Cc1cncc(-c2ccc3[nH]nc(-c4cc5c(-c6cccc(F)c6)ccnc5[nH]4)c3c2)c1 [Compound 13, 1-(5-(3-(4-(3-Fluorophenyl)-1H-pyrrolo[2,3-b]pyridin-2-yl)-1H-indazol-5-yl)pyridin-3-yl)-N,N-dimethylmethanamine]
EC50 [1]: 1180 nM
EC50 (SW480 colon cancer cells): 2920 nM
EC50 [2]: 1190 nM
Emax [3]: 48%
EC50 [4]: > 10000 nM
inhibition at 10 µM [4]: 55.3%

O=C(Nc1cncc(-c2ccc3[nH]nc(-c4cc5c(-c6cccnc6)ccnc5[nH]4)c3c2)c1)C1CCCCC1 [Compound 107, N-(5-(3-(4-(Pyridin-3-yl)-1H-pyrrolo[2,3-b]pyridin-2-yl)-1H-indazol-5-yl)pyridin-3-yl)cyclohexanecarboxamide]
inhibition at 10 µM [1]: 10.6%
EC50 [1]: > 10000 nM
EC50 (SW480 colon cancer cells): > 10000 nM
inhibition at 10 µM (SW480 colon cancer cells): 12%
EC50 [2]: > 10000 nM
inhibition at 10 µM [2]: 41.7%
Emax [3]: 39%
EC50 [4]: > 10000 nM
inhibition at 10 µM [4]: 34.4%

c1cncc(-c2ccc3[nH]nc(-c4cc5c(-c6cccnc6)ccnc5[nH]4)c3c2)c1 [Compound 88, 5-(Pyridin-3-yl)-3-(4-(pyridin-3-yl)-1H-pyrrolo[2,3-b]pyridin-2-yl)-1H-indazole]
inhibition at 10 µM [1]: 48.8%
EC50 [1]: > 10000 nM
EC50 (SW480 colon cancer cells): > 10000 nM
inhibition at 10 µM (SW480 colon cancer cells): 11.2%
EC50 [2]: > 10000 nM
inhibition at 10 µM [2]: 0%
Emax [3]: 17%
EC50 [4]: 648 nM

CCCCC(=O)Nc1cncc(-c2ccc3[nH]nc(-c4cc5cccnc5[nH]4)c3c2)c1 [Compound 271, N-(5-(3-(1H-Pyrrolo[2,3-b]pyridin-2-yl)-1H-indazol-5-yl)pyridin-3-yl) pentanamide]
EC50 [1]: 324 nM
EC50 (SW480 colon cancer cells): 1060 nM
EC50 [2]: 712 nM
Emax [3]: 34%
EC50 [4]: 23 nM

Nc1cncc(-c2ccc3[nH]nc(-c4cc5c(N6CCCCC6)ccnc5[nH]4)c3c2)c1 [Compound 171, 5-(3-(4-(Piperidin-1-yl)-1H-pyrrolo[2,3-b]pyridin-2-yl)-1H-indazol-5-yl) pyridin-3-amine]
EC50 [1]: 604 nM
EC50 (SW480 colon cancer cells): 1230 nM
EC50 [2]: 1720 nM
EC50 [3]: 30 nM
Emax [3]: 130%
EC50 [4]: 622 nM

c1cc(-c2ccsc2)c2cc(-c3n[nH]c4ccc(-c5cncc(CN6CCCCC6)c5)cc34)[nH]c2n1 [Compound 295, 5-(5-(Piperidin-1-ylmethyl)pyridin-3-yl)-3-(4-(thiophen-3-yl)-1H-pyrrolo[2,3-b]pyridin-2-yl)-1H-indazole]
inhibition at 10 µM [1]: 37.1%
EC50 [1]: > 10000 nM
EC50 (SW480 colon cancer cells): > 10000 nM
inhibition at 10 µM (SW480 colon cancer cells): 2.1%
EC50 [2]: > 10000 nM
inhibition at 10 µM [2]: 16.8%
EC50 [3]: 30 nM
Emax [3]: 73%
EC50 [4]: > 10000 nM
inhibition at 10 µM [4]: 34.9%
